{
  "source": "ChEMBL document CHEMBL4732174",
  "about": "“Discovery of 6-(7-Nitro-2,1,3-benzoxadiazol-4-ylthio)hexanol Derivatives as Glutathione Transferase Inhibitors with Favorable Selectivity and Tolerated Toxicity” (J Med Chem, 2021)",
  "key": {"[1]": {"target": "Glutathione S-transferase P (Homo sapiens, UniProt P09211)", "sequence (P09211 whole entry)": "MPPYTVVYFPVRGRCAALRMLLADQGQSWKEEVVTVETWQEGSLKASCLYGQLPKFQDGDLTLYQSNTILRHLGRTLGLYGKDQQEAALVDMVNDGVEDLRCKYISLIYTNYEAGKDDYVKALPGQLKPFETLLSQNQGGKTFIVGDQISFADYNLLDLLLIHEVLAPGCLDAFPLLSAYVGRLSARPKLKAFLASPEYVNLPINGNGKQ", "test": "Inhibition of GSTP1-1 (unknown origin) using reduced GSH and CDNB as substrate incubated for 10 mins followed by substrate addition by microplate reader analysis"}, "[2]": {"test": "Water solubility of the compound measured by UV-Visible spectral analysis", "type": "physicochemical", "conditions": "water; read-out: solubility"}, "HUVEC": {"test_system": "HUVEC", "test": "Cytotoxicity against HUVEC assessed as reduction in cell viability incubated for 72 hrs by MTT assay", "type": "cell-based", "conditions": "Homo sapiens"}, "L02": {"test_system": "L02", "test": "Cytotoxicity against human L02 cells assessed as reduction in cell viability incubated for 72 hrs by MTT assay", "type": "cell-based", "conditions": "L02, 72 h"}, "143B [3]": {"test_system": "143B", "test": "Induction of cell cycle arrest in human 143B cells assessed as accumulation at G1 phase at 2.5 uM incubated for 48 hrs by propidium iodide staining based flow cytometry (reference value: 66.62 %)", "type": "functional"}, "143B [4]": {"test_system": "143B", "test": "Induction of cell cycle arrest in human 143B cells assessed as accumulation at G2 phase at 5 uM incubated for 48 hrs by propidium iodide staining based flow cytometry (reference value: 1.35 %)", "type": "functional"}, "143B [5]": {"test_system": "143B", "test": "Induction of cell cycle arrest in human 143B cells assessed as accumulation at G1 phase at 10 uM incubated for 48 hrs by propidium iodide staining based flow cytometry (reference value: 66.62 %)", "type": "functional"}, "143B [6]": {"test_system": "143B", "test": "Induction of cell cycle arrest in human 143B cells assessed as accumulation at S phase at 10 uM incubated for 48 hrs by propidium iodide staining based flow cytometry (reference value: 32.03 %)", "type": "functional"}, "143B [7]": {"test_system": "143B", "test": "Induction of apoptosis in human 143B cells assessed as apoptotic cells at 2.5 uM incubated for 24 hrs by Annexin V-FITC/PI double staining based flow cytometric analysis (reference value: 3.9%)", "type": "functional"}, "143B [8]": {"test_system": "143B", "test": "Induction of apoptosis in human 143B cells assessed as apoptotic cells at 5 uM incubated for 24 hrs by Annexin V-FITC/PI double staining based flow cytometric analysis (reference value: 3.9%)", "type": "functional"}, "[9]": {"test": "MRT (0 to t) in Sprague-Dawley rat at 80 mg/kg, po administered as single dose measured upto 48 hrs by LC-MS/MS analysis", "conditions": "in vivo"}, "liver carboxylesterase": {"target": "T1, liver carboxylesterase (Sus scrofa, UniProt Q29550)", "T1 sequence (Q29550 whole entry)": "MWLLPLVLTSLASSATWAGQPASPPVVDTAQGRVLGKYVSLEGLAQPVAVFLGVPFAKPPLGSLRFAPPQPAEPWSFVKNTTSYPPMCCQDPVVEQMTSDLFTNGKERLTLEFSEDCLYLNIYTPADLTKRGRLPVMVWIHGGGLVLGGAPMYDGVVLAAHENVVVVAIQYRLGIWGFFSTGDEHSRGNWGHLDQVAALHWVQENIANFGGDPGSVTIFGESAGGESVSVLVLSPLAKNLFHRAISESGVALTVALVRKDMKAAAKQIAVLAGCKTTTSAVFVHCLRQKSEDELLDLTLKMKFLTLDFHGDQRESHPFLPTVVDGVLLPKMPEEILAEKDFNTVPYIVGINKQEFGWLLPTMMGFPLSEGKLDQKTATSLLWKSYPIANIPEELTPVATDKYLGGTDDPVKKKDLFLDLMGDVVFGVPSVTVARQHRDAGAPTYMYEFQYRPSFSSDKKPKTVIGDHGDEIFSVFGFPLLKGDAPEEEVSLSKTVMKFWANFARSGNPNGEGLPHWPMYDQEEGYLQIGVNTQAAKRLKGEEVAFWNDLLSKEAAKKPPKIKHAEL", "test": "Stability of the compound assessed as pig liver carboxylesterase-mediated compound hydrolysis at 10 mM measured after 12 hrs by HPLC analysis", "type": "ADME", "conditions": "read-out: Drug degradation"}, "143B [10]": {"test_system": "143B", "test": "Antitumor activity against human 143B cells xenografted in BALB/c nude mouse assessed as tumor growth inhibition at 5 mg/kg, po administered once daily for 28 consecutive days relative to control", "type": "functional", "conditions": "672 h, time 28 day, read-out: TGI"}, "143B [11]": {"test_system": "143B", "test": "Antitumor activity against human 143B cells xenografted in BALB/c nude mouse assessed as tumor growth inhibition at 20 mg/kg, po administered once daily for 28 consecutive days relative to control", "type": "functional", "conditions": "672 h, time 28 day, read-out: TGI"}, "[12]": {"test": "Toxicity in BALB/c nude mouse xenografted with human 143B cells assessed as cellular inflammation in heart at 5 to 20 mg/kg, po administered once daily for 28 consecutive days by hematoxylin-eosin staining based assay", "type": "organism-based", "conditions": "in vivo, 672 h, dose 5-20 mg/kg, time 28 day"}, "[13]": {"test": "Toxicity in BALB/c nude mouse xenografted with human 143B cells assessed as cellular inflammation in liver at 5 to 20 mg/kg, po administered once daily for 28 consecutive days by hematoxylin-eosin staining based assay", "type": "organism-based", "conditions": "in vivo, 672 h, dose 5-20 mg/kg, time 28 day"}, "[14]": {"test": "Toxicity in BALB/c nude mouse xenografted with human 143B cells assessed as cellular inflammation in lung at 5 to 20 mg/kg, po administered once daily for 28 consecutive days by hematoxylin-eosin staining based assay", "type": "organism-based", "conditions": "in vivo, 672 h, dose 5-20 mg/kg, time 28 day"}, "[15]": {"test": "Toxicity in BALB/c nude mouse xenografted with human 143B cells assessed as cellular inflammation in kidney at 5 to 20 mg/kg, po administered once daily for 28 consecutive days by hematoxylin-eosin staining based assay", "type": "organism-based", "conditions": "in vivo, 672 h, dose 5-20 mg/kg, time 28 day"}, "[16]": {"test": "Toxicity in BALB/c nude mouse xenografted with human 143B cells assessed as kidney edema at 5 to 20 mg/kg, po administered once daily for 28 consecutive days by hematoxylin-eosin staining based assay", "type": "organism-based", "conditions": "in vivo, 672 h, dose 5-20 mg/kg, time 28 day"}, "[17]": {"test": "Toxicity in BALB/c nude mouse xenografted with human 143B cells assessed as necrosis in lung at 5 to 20 mg/kg, po administered once daily for 28 consecutive days by hematoxylin-eosin staining based assay", "type": "organism-based", "conditions": "in vivo, 672 h, dose 5-20 mg/kg, time 28 day"}, "[18]": {"test": "Toxicity in BALB/c nude mouse xenografted with human 143B cells assessed as necrosis in kidney at 5 to 20 mg/kg, po administered once daily for 28 consecutive days by hematoxylin-eosin staining based assay", "type": "organism-based", "conditions": "in vivo, 672 h, dose 5-20 mg/kg, time 28 day"}, "[19]": {"test": "Toxicity in BALB/c nude mouse xenografted with human 143B cells assessed as body weight loss at 20 mg/kg, po administered once daily for 28 consecutive days and measured every 3 days", "type": "organism-based", "conditions": "in vivo, 672 h, time 28 day"}, "[20]": {"conditions": "rat, in vivo, po, 80 mg/kg, 48 h", "description": "AUC (0 to infinity) in Sprague-Dawley rat at 80 mg/kg, po administered as single dose measured upto 48 hrs by LC-MS/MS analysis"}, "in vivo [21]": {"test": "in vivo", "conditions": "Sprague-Dawley, rat, po, 80 mg/kg", "description": "Tmax in Sprague-Dawley rat at 80 mg/kg, po administered as single dose measured upto 48 hrs by LC-MS/MS analysis"}, "in vivo [22]": {"test": "in vivo", "conditions": "Sprague-Dawley, rat, po, 80 mg/kg", "remark": "listed apart in the source", "description": "Cmax in Sprague-Dawley rat at 80 mg/kg, po administered as single dose measured upto 48 hrs by LC-MS/MS analysis"}, "in vivo [23]": {"test": "in vivo", "conditions": "Sprague-Dawley, rat, po, 80 mg/kg", "remark": "listed apart in the source", "description": "AUC (0 to t) in Sprague-Dawley rat at 80 mg/kg, po administered as single dose measured upto 48 hrs by LC-MS/MS analysis"}},
  "note": "pIC50: −log10 of the molar value.",
  "data": [
    {"smiles": "CN(C)CCCNC(=O)CCC(=O)OCCCCCCSc1ccc([N+](=O)[O-])c2nonc12", "values": [
      {"measurement": "pIC50", "setting": "[1]", "result": 6.80},
      {"measurement": "solubility", "setting": "[2]", "result": 9000, "unit": "µg/mL"},
      {"measurement": "pIC50", "setting": "HUVEC", "result": 5.80},
      {"measurement": "pIC50", "setting": "L02", "result": 5.37},
      {"measurement": "Activity", "setting": "143B [3]", "result": 49.79, "unit": "%"},
      {"measurement": "Activity", "setting": "143B [4]", "result": 15.24, "unit": "%"},
      {"measurement": "Activity", "setting": "143B [5]", "result": 48.67, "unit": "%"},
      {"measurement": "Activity", "setting": "143B [6]", "result": 30.32, "unit": "%"},
      {"measurement": "Activity", "setting": "143B [7]", "result": 46.5, "unit": "%"},
      {"measurement": "Activity", "setting": "143B [8]", "result": 74, "unit": "%"},
      {"measurement": "MRT last at 48 h", "setting": "[9]", "result": 6.35, "unit": "h"},
      {"measurement": "metabolised at 12 h, 10000 µM", "setting": "liver carboxylesterase", "result": 33, "unit": "%"},
      {"measurement": "inhibition in vivo at 5 mg/kg", "setting": "143B [10]", "result": 46.4, "unit": "%"},
      {"measurement": "inhibition in vivo at 20 mg/kg", "setting": "143B [11]", "result": 74.5, "unit": "%"},
      {"measurement": "Activity", "setting": "[12]", "result": "Non-Toxic"},
      {"measurement": "Activity", "setting": "[13]", "result": "Non-Toxic"},
      {"measurement": "Activity", "setting": "[14]", "result": "Non-Toxic"},
      {"measurement": "Activity", "setting": "[15]", "result": "Non-Toxic"},
      {"measurement": "Activity", "setting": "[16]", "result": "Non-Toxic"},
      {"measurement": "Activity", "setting": "[17]", "result": "Non-Toxic"},
      {"measurement": "Activity", "setting": "[18]", "result": "Non-Toxic"},
      {"measurement": "Activity", "setting": "[19]", "result": "Non-Toxic"},
      {"measurement": "AUC", "setting": "[20]", "result": 6514.48, "unit": "ng·h/mL"},
      {"measurement": "Tmax at 48 h", "setting": "in vivo [21]", "result": 2.33, "unit": "h"},
      {"measurement": "Cmax at 48 h", "setting": "in vivo [22]", "result": 1810, "unit": "ng/mL"},
      {"measurement": "AUC(0-t) at 48 h", "setting": "in vivo [23]", "result": 6420, "unit": "ng·h/mL"}
    ]}
  ]
}
